# US12194051B2, “5-azaindazole derivatives as adenosine receptor antagonists” (MERCK PATENT GMBH, priority 2018, dated 2025)
# How the values were obtained:
# Format in all cases: cell-based
# human A2A receptors = molecular target: T1, human A2A receptors (Homo sapiens, UniProt P29274); test: Inhibition of human A2A receptor in recombinant HEK293 cells, cAMP quantification (HTRF); conditions: read-out: A2A (Category)
# T1 construct: expressed in transfected cells; host or cells: HEK293
# How it was run: (§1)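 Read-out is cellular cAMP measured by HTRF, added once a 15 min incubation had ended. cAMP reflects adenosine receptor signalling as the second messenger.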
# human A2B receptors = molecular target: T2, human A2B receptors (Homo sapiens, UniProt P29275); test: Inhibition of human A2B receptor in recombinant HEK293 cells, cAMP quantification (HTRF); conditions: read-out: A2B (Category)
# T2 construct: expressed in transfected cells; host or cells: HEK293
# T2 sequence (P29275 1-332): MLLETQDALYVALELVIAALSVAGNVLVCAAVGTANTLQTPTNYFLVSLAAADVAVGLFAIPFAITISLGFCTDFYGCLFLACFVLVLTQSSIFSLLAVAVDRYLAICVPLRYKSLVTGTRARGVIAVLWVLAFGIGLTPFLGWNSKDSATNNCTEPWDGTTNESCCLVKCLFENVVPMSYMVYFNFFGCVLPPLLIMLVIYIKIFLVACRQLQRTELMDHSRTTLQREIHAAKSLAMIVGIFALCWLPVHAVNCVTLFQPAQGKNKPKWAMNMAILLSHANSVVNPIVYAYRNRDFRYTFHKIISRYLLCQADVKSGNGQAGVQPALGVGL
# How it was run: as §1
# [1] = molecular target: T3, endogenous human A2A receptor (Homo sapiens, UniProt P29274); test: Human T cell assay, endogenous A2A receptor, cAMP quantification
# T3 construct: The endogenous functional activity of the Gs-coupled human A2A receptor was measured in T cells; endogenous in cells; host or cells: human pan T cells isolated from PBMC of fresh whole blood
# Protocol: The endogenous functional activity of the Gs-coupled human A2A receptor was measured in T cells, where this receptor is highly expressed. Determination of receptor activity was done by quantification of cAMP, which is a second messenger for adenosine receptors.
# In short, human pan T cells were isolated from human PBMC (MACS Pan T Cell Isolation Kit, Miltenyi Biotec) that have been derived from fresh whole blood. The T cells were seeded in 384-well microtiter plates and treated with test compounds. […] Finally, HTRF reagents (cAMP Femto Kit, CisBio) were added to the wells, and after 1 h cellular cAMP levels were determined using the ENVISION (Perkin Elmer) plate reader.
# The obtained raw data were normalized against the inhibitor control and the neutral control (DMSO) and the normalized data were fitted using Genedata Screener software.
# Human T cell = Human T cell IL-2; conditions: human T cells
# mouse Pan T cells = test: Mouse T cell IL-2 rescue from NECA inhibition (ELISA); conditions: 24 h
# From the text: Adenosine (Ado) in tumor microenvironment can inhibit T cell activity by signaling through A2A receptors and suppress cytokine secretion by T cells. […] Potential A2A antagonists or A2A/A2B dual antagonists can rescue T cells from this inhibition. Herein, we describe the in vitro system we established using Pan T cells from mouse spleens to screen potential A2A antagonists or A2A/A2B dual antagonists for their activity. The method described involves the use of CD3/CD28 pre-coated beads to stimulate Pan T cells purified from mouse splenocytes, combined with the addition of A2A agonist along with potential A2A or A2A/A2B dual antagonists to evaluate potentiation of T cell cytokine production.
# Briefly, mouse Pan T cells are purified from spleens of BALB/c mice using Pan T cell isolation kit Mouse II (MACS Miltenyi biotech Cat # Order no. 130-095-130) according to manufacturer's protocol. […] After 24 h incubation IL-2 levels in the supernatants are measured by ELISAs according to manufacturer's protocol (R&D systems Cat # DY402 (IL-2)). Once the concentrations are calculated, the difference of cytokine concentration of DMSO control and agonist alone control is calculated and the percentage of rescue by each concentration of antagonist is calculated by using Microsoft Excel. […]
# T3 sequence (P29274 whole entry): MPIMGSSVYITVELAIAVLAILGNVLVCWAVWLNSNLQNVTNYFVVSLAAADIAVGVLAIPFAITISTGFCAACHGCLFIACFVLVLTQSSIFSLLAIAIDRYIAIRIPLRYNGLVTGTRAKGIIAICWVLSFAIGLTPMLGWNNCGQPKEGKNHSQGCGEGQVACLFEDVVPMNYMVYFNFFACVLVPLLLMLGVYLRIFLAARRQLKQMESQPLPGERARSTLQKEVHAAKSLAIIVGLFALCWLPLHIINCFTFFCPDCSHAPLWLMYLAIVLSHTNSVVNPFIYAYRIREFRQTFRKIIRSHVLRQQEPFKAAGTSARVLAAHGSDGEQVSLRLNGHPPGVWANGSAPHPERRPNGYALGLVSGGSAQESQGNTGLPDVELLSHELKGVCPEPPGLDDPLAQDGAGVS
# T1 sequence (P29274 whole entry): as above
structure (smiles),measurement,setting,value
"O=C(c1cc2c(cn1)c(Nc1ccc(F)cc1)nn2CC(F)(F)F)N1CCCOCC1 [Compound 10, [3-(4-fluoroanilino)-1-(2,2,2-trifluoroethyl)pyrazolo[4,3-c]pyridin-6-yl]-(1,4-oxazepan-4-yl)methanone]",IC50,human A2A receptors,< 100 nM
same,IC50,human A2B receptors,< 100 nM
same,IC50,[1],< 100 nM
same,IC50,Human T cell,< 100 nM
same,IC50,mouse Pan T cells,< 1000 nM
